The values below are quoted from earlier work in publication PMC3138524 (European journal of pharmacology, 2011).

Holding throughout (format): cell-based, HEK293
The target of series [1] is T1, MC3R (Homo sapiens, UniProt P41968). The conditions noted are these: read-out: Binding Affinities IC50; n = 2.
Series [2] addresses T2, MC5R (Homo sapiens, UniProt P33032). The conditions noted are these: read-out: Functional Assays cAMP EC50; n = 2.
Series [3] has as its target T2, MC5R. The settings on record: read-out: Binding Affinities IC50; n = 2.
For series [4], the target named is T1, MC3R. The settings on record: read-out: Functional Assays cAMP EC50; n = 2.
Series [5] has as its target T3, MC4R (Homo sapiens, UniProt P32245). The conditions noted are these: read-out: Binding Affinities IC50; n = 2.
Series [6] has as its target T3, MC4R. The conditions noted are these: read-out: Functional Assays cAMP EC50; n = 2.

Positions of bridges follow the written chain, without caps; N, C: chain ends. Non-standard residues stand in square brackets, D forms with d. d2Nal = N[C@H](Cc1ccc2ccccc2c1)C(=O)O; Pen = CC(C)(S)[C@H](N)C(=O)O; Nle = CCCC[C@H](N)C(=O)O

T3 sequence (P32245 whole entry): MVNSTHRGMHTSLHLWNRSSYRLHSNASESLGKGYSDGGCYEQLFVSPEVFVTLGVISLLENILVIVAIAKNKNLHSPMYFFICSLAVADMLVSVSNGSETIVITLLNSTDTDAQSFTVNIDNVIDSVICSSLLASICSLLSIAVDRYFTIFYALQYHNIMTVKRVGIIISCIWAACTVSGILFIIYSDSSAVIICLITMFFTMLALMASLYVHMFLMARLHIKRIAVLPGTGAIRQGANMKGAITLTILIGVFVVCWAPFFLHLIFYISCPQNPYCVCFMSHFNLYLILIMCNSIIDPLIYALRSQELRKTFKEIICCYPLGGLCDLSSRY
T1 sequence (P41968 whole entry): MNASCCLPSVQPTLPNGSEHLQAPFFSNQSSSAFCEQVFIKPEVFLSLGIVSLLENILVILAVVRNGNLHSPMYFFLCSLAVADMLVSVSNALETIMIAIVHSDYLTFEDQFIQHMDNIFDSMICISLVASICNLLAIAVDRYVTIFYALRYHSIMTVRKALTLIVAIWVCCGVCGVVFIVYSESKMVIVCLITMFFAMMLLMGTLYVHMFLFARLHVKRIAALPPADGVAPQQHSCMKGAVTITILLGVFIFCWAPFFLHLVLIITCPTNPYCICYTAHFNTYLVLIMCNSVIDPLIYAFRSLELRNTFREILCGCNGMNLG
T2 sequence (P33032 whole entry): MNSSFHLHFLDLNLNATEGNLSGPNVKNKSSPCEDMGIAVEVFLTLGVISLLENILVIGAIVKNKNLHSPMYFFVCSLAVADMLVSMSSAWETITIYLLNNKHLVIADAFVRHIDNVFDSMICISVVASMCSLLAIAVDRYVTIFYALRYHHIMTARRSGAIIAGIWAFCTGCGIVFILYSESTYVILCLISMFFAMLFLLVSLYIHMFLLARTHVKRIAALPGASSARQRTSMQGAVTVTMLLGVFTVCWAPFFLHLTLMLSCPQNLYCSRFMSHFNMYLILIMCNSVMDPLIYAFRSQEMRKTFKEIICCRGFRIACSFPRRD

As a reminder, the IC50 is the point on the concentration scale where inhibition reaches its midpoint. Regarding “Ac-Nle-c[Asp-Aba-D-Phe-Arg-Trp-Lys]-NH2 [compound 4]”, at MC3R [1], the half-maximal inhibitory concentration (IC50) was 50 nM.
The EC50 is the midpoint of the concentration-response curve. In the case of “Tyr-Val-Nle-Gly-His-D-Nal(2′)-Arg-Trp-Asp-Arg-Phe-Gly-NH2 [compound 1]”, the EC50 at MC5R [2] and at MC3R [4] was greater than 10000 nM in each case. For the same compound, the half-maximal inhibitory concentration (IC50) at MC5R [3] is 1 nM; on MC3R [1] it was 0.84 nM.
Consider “Ac-[Nle][Pen]EH[d2Nal]RWCPKD-NH2 (disulfide 2-8) [compound 5]”, for which the concentration for half-maximal inhibition (IC50) at MC3R [1] is 3 nM.
Consider “Ac-c[Cys-His-D-Phe-N^α-Gubu-Cys]-Trp-NH2 [compound 6]”, for which the IC50 on MC4R [5] was 1.8 nM.
In the case of `N=C(N)NCCC[C@@H]1NC(=O)[C@@H](Cc2ccccc2)NC(=O)[C@@H]2CCCN2C(=O)[C@@H](NC(=O)[C@H](N)Cc2ccccc2)CC(=O)NCCCC[C@@H](C(N)=O)NC(=O)[C@H](Cc2c[nH]c3ccccc23)NC1=O` [compound 3, D-Phe-c[Asp-Pro-D-Phe-Arg-Trp-Lys]-NH2], the EC50 on MC5R [2] is greater than 1000 nM; on MC4R [6], greater than 10000 nM.
“Ac-c[Cys-His-D-Phe-Cys]-N^α-Gubu-D-Trp-NH2 [compound 7]”: on MC4R [5], the half-inhibitory concentration (IC50) is 0.7 nM. The concentration for a half-maximal effect (EC50) at MC4R [6] is greater than 1000 nM.
